Test system: Human keratinocytes (HatKat)
Assay: Growth of keratinocytes, cell count in Coulter counter after three days
Assay type: cell-based
Conditions: 10 ng/ml EGF versus medium with 0.5% FCS
Protocol: Human keratinocytes (HatKat) were grown in keratinocyte growth medium (TCS Cellworks Ltd.) until 20% confluence. Then, in the same medium, the keratinocytes were grown for three days with 0.5% foetal calf serum (FCS), at which point the cells were counted in a Coulter® counter. The cell numbers obtained are set out in Table 3 below.

epidermal growth factor (NSDSECPLSHDGYCLHDGVCMYIEALDKYACNCVVGYIGERCQYRDLKWWELR; UniProt P01133 971-1023, looked up) [EGF, epidermal growth factor, comparison growth factor at 10 ng/ml]
increase in the growth of keratinocytes (in words): relatively modest increase
